The values below are quoted from earlier work in US20170007537A1, “PHARMACEUTICAL COMPOSITIONS OF ASENAPINE” (HETERO RESEARCH FOUNDATION, priority 2014, published 2017).

For this data set the following is noted: when swallowed; oral tablet formulation.

Molecules are shown by their SMILES.

`CN1C[C@H]2c3ccccc3Oc3ccc(Cl)cc3[C@@H]2C1.O=C(O)/C=C\C(=O)O` (racemic) [asenapine, (3aRS,12bRS)-5-Chloro-2-methyl-2,3,3a,12b-tetrahydro-1Hdibenzo[2,3:6,7]oxepino[4,5-c]pyrrole(2Z)-2-butenedioate (1:1)]: the absolute bioavailability was below 2%.
